Results reported in US7205403B2, “8-Heteroaryl xanthine adenosine A2B receptor antagonists” (King Pharmaceuticals Research and Development, Inc., priority 2002, dated 2007).
Like-named read-outs stand apart in the source and are kept apart here.

Tests used:
[1] = target: T1, human A1 adenosine receptor (Homo sapiens, UniProt P30542); test: [3H]DPCPX binding to human A1 receptors expressed in CHO cells; details: geometric mean (95% confidence interval); >1000 = no appreciable binding
T1 construct: expressed in transfected cells; host or cells: CHO cells (membranes)
T1 sequence (P30542 1-326): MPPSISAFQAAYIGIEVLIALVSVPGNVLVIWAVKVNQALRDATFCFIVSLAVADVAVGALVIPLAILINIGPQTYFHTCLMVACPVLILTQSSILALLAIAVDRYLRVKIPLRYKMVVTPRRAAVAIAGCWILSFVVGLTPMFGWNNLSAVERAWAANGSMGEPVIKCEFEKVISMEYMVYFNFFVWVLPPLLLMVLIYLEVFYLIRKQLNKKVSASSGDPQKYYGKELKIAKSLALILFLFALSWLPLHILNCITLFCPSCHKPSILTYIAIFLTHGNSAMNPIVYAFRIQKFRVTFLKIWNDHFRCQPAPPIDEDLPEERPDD

[2] = target: T2, human A2A adenosine receptor (Homo sapiens, UniProt P29274); test: [3H]ZM241385 binding to human A2A receptors expressed in CHO cells
T2 construct: expressed in transfected cells; host or cells: CHO cells (membranes)
T2 sequence (P29274 whole entry): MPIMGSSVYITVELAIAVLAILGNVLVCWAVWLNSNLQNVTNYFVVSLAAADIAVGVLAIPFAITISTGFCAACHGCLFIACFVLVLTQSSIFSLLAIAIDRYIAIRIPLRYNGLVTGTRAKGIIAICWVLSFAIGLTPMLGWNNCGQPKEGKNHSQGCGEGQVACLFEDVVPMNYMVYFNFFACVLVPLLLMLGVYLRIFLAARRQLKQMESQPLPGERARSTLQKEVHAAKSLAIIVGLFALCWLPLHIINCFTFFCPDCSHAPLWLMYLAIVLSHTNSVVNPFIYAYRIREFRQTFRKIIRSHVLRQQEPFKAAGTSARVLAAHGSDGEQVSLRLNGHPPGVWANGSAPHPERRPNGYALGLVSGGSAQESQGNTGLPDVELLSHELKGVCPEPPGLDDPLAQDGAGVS
Summary of the method: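 Membranes from adherent CHO cells, resuspended in 50 mM Tris HCl with 10 mM MgCl2, pH 7.4. The inhibitory binding constant is reported.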

[3] = target: T3, human A3 adenosine receptor (Homo sapiens, UniProt P0DMS8); test: [3H]MRE3008F20 binding to human A3 receptors expressed in CHO cells
T3 construct: expressed in transfected cells; host or cells: CHO cells (membranes)
T3 sequence (P0DMS8 1-318): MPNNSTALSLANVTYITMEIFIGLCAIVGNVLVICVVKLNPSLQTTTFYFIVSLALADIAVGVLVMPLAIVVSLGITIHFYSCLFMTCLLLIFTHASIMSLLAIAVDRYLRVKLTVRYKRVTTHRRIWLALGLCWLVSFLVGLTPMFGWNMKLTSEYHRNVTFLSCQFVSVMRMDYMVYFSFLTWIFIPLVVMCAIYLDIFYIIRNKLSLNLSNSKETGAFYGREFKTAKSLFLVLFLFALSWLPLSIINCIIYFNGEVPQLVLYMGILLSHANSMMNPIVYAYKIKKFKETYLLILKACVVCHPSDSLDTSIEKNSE
Summary of the method: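 CHO cell membranes (50 μg protein) competed against 1 nM [3H]-MRE3008-F20 in 50 mM Tris HCl, MgCl2, pH 7.4, with 6–8 ligand concentrations in duplicate, 120 minutes at 4° C. Filter-bound radioactivity counted by scintillation; inhibitory binding constants derived.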

[4] = target: T4, human A2B adenosine receptor (Homo sapiens, UniProt P29275); test: Cyclic AMP assay, antagonism of NECA-stimulated cAMP in CHO cells transfected with human A2B receptors; format: cell-based
T4 sequence (P29275 1-332): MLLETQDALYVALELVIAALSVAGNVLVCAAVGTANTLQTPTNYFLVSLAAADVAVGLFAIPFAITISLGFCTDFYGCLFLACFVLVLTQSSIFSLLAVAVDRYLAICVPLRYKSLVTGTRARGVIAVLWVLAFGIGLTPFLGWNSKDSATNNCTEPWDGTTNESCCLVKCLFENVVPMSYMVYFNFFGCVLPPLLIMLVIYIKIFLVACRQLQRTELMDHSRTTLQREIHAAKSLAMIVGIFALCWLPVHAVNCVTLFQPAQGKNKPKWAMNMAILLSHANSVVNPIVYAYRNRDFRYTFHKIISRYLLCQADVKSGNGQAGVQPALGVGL
Procedure: Measurement of cyclic AMP (CAMP) levels in CHO cells transfected with human A2B adenosine receptors was performed in the following manner. CHO cells transfected with human A2B adenosine receptors were washed with phosphate-buffered saline, diluted tripsine and centrifuged for 10 minutes at 200 g.
The reaction was terminated by the addition of cold 6% thrichloroacetic acid (TCA). The TCA suspension was centrifuged at 2000 g for 10 minutes at 4° C. and the supernatant was extracted four times with water saturated diethyl ether. The final aqueous, solution was tested for cAMP levels by a competition protein binding assay. Samples of cAMP standard (0–10 pmoles) were added to each test tube containing the incubation buffer (trizma base 0.1 M, aminophylline 8.0 mM, 2-mercaptoethanol 6.0 mM, pH 7.4) and [H^3]-cAMP in a total volume of 0.5 ml. The binding protein previously prepared from beef adrenals, was added to the samples previously incubated at 4° C. for 150 minutes, and after the addition of charcoal were centrifuged at 2000 g for 10 minutes. The clear supernatant was counted in a Beckman scintillation counter.
Finally, to evaluate the regulation of adenylyl cyclase activity and to test whether the binding parameters correlated with the functional response, the IC50 values were obtained for inhibition of cAMP production by antagonists. In particular, we evaluated the capability of the several compounds to inhibit NECA (100 nM)-stimulated cyclic AMP accumulation.

[5] = target: T4, human A2B adenosine receptor; test: [3H]DPCPX binding to human A2B receptors expressed in HEK293 cells; parameters: host or cells: HEK 293 cells (membranes)
Summary of the method: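 Membranes (20 μg protein) from HEK293 cells expressing recombinant human A2B receptor were incubated 60 min at 25° C with 40 nM [3H]-DPCPX and 6–8 compound concentrations. Buffer was Tris-HCl with MgCl2, 1 mM EDTA, 0.1 mM benzamidine and 2 IU/ml adenosine deaminase, pH 7.4. Filter-bound radioactivity gave the inhibitory binding constant.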

[6] = read-out: Ki, [3H]ZM241385 binding to human A2A receptors expressed in CHO cells
[7] = inhibition of NECA (100 nM)-stimulated cAMP, geometric mean (95% confidence limits)
[8] = Table 2, geometric mean (95% confidence limits), at least three experiments in duplicate, read-out: [3H]-DPCPX binding to human A2B receptors in HEK 293 cells Ki
[9] = geometric mean (95% confidence interval), >1000 = no appreciable binding, read-out: Ki, [3H]DPCPX binding to human A2B receptors expressed in HEK293 cells

| Ki [1] | Ki [2, 6] | Ki [3] | IC50 [4, 7] | Ki [5, 8] | Ki [5, 9] | IC50 [4] | SMILES | Ki [2] |
| --- | --- | --- | --- | --- | --- | --- | --- | --- |
| 56 nM | > 1000 nM | > 1000 nM | 93 nM | 13 nM | 13 nM |  | CCCn1c(=O)c2[nH]c(-c3cc(NC(=O)Cc4ccc(OCc5ccccc5C(F)(F)F)cc4)nn3C)nc2n(CCC)c1=O [AS29, N-[5-(2,6-dioxo-1,3-dipropyl-2,3,6,9-tetrahydro-1H-purin-8-yl)-1-methyl-1H-pyrazol-3-yl]-2-(4-{[2-(trifluoromethyl)benzyl]oxy}phenyl)acetamide] |  |
| 448 nM | > 1000 nM | > 1000 nM |  | 39 nM | 39 nM | 136 nM | CCCn1c(=O)c2[nH]c(-c3cc(NC(=O)Nc4cccc(Cl)c4)nn3C)nc2n(CCC)c1=O [AS54, N-(3-chlorophenyl)-N'-[5-(2,6-dioxo-1,3-dipropyl-2,3,6,7-tetrahydro-1H-purin-8-yl)-1-methyl-1H-pyrazol-3-yl]urea] |  |
| 150 nM | > 1000 nM | > 1000 nM | 108 nM | 20 nM | 20 nM |  | CCCn1c(=O)c2[nH]c(-c3cc(OCC(=O)Nc4ccc(Br)cc4)nn3C)nc2n(CCC)c1=O [AS65, 2-{[5-(2,6-dioxo-1,3-dipropyl-2,3,6,9-tetrahydro-1H-purin-8-yl)-1-methyl-1H-pyrazol-3-yl]oxy}-N-(4-bromophenyl)acetamide] |  |

| SMILES | Ki [1] | Ki [2, 6] | Ki [3] | IC50 [4, 7] | Ki [5, 8] | Ki [5, 9] | IC50 [4] | Ki [2] |
| --- | --- | --- | --- | --- | --- | --- | --- | --- |
| CCCn1c(=O)c2[nH]c(-c3cc(NC(=O)Cc4ccc5c(c4)OCO5)nn3C)nc2n(CCC)c1=O [AS57, 2-(1,3-benzodioxol-5-yl)-N-[5-(2,6-dioxo-1,3-dipropyl-2,3,6,9-tetrahydro-1H-purin-8-yl)-1-methyl-1H-pyrazol-3-yl]acetamide] | 566 nM |  | > 1000 nM | 95 nM | 18 nM | 18 nM |  | 1250 nM |
